Results: US20260116892A1, “CRYSTAL FORM OF COMPOUND AND PREPARATION METHOD THEREFOR” (NANJING INNOCARE PHARMA TECH CO., LTD., priority 2022, published 2026)
Entries after “also recorded” stand apart in the source; their conditions may differ.

Tests used:
Format in all cases: physicochemical
[1] = Suspension competition experiment between the crystalline forms in solution; conditions: equal amount of forms A/B in saturated solution of isopropyl alcohol and water, room temperature, stirring 2 days
Experimental: The transformation relationship between the crystalline forms was studied by a suspension competition experiment in the solution. The suspension competition between the crystalline form A and the crystalline form B was carried out at room temperature. The crystalline form A was obtained by adding equal amount of the crystalline form A/B to the saturated solution of isopropyl alcohol and water with suspending and stirring for 2 days.

[2] = Hygroscopicity assessment by dynamic vapor sorption (DVS); conditions: 25° C.
Experimental: The “hygroscopicity” described in the present invention refers to the characteristic of the substance's ability or degree of absorbing water under the conditions of certain temperature and humidity. Regarding to the characteristic description of hygroscopicity and the definition of hygroscopic weight gain (performing experiments according to the method of guideline 9103 of Pharmacopoeia of the People's Republic of China (2015) Volume IV. experimental conditions: 25° C.±1° C., 80%±2% of relative humidity):
deliquescence: sufficient water absorption to form a solution; very hygroscopic: hygroscopic weight gain of not less than 15%; phygroscopic: hygroscopic weight gain of less than 15% but not less than 2%; slightly hygroscopic: hygroscopic weight gain of less than 2% but not less than 0.2%; not or almost not hygroscopic: hygroscopic weight gain of less than 0.2%.
The dynamic vapor sorption (DVS) diagram described in the present invention was acquired using an Intrinsic dynamic vapor sorption instrument produced by SMS (Surface Measurement Systems Ltd.). The method parameters of the dynamic vapor sorption described in the present invention are as follows: […]
About 30 mg of the crystalline form A of the present invention was taken and subjected to a dynamic vapor sorption test using a dynamic vapor sorption (DVS). […] The XRPD was measured before and after the test.

[3] = Stability assessment of the crystalline form A (solid, accelerated and 12 months)
Source text: The “stability” described in the present invention refers to that neither degradation of the crystalline form has been found nor transformation to other crystalline form has been detected in the determination of the crystalline form by analytical means such as LC detection, XRPD, etc.
The solid sample of crystalline form A was exposed to high temperature, high humidity and light (open) for au one month accelerated stability study to observe the purity of the sample and the stability of the crystalline form.
The solid sample of crystalline form A was placed under the 30° C./65% RH (closed) for a 12 months stability study to observe the purity of the sample and the stability of the crystalline form (XRPD pattern).

[4] = 12 months, 30° C./65% RH (closed)
[5] = Acceleration for 1 month (25° C., 90% ± 5% RH), open
[6] = Acceleration for 1 month (60° C.), open
[7] = Acceleration for 13 days (10 days of light exposure, 3 days of UV exposure), open

Crystalline form before and after DVS test (XRPD) ([2]; 0% RH to 95% RH) | Weight gain (DVS) ([2]; 80% relative humidity) [%] | Purity (%) ([3]; 0 month (start of stability study)) | Crystalline form (XRPD) [3, 4] | Purity (%) [3, 4] [%] | Crystalline form (XRPD) [3, 5] | Purity (%) [3, 5] [%] | Crystalline form (XRPD) [3, 6] | Purity (%) [3, 6] [%] | Crystalline form (XRPD) [3, 7] | Purity (%) [3, 7] [%] | Compound | Thermodynamic stability / transformation in suspension competition [1] | Stability (conclusion in words) ([3]; 60° C. 1 month, 25° C./90%±5% RH 1 month, light 13 days, 30° C./65% RH 12 months)
remained unchanged | 0.46 | 98.9 | Unchanged | 99.4 | Unchanged | 98.5 | Unchanged | 98.3 | Unchanged | 99.4 | C[C@H]1CNC(=O)Nc2cnn3ccc(nc23)N2C[C@@H](F)C[C@@H]2c2cc(F)cnc2O1 [crystalline form A, (2^2R,2^4S,5S)-2^4,3^5-difluoro-5-methyl-4-oxa-7,9-diaza-1(5,3)-pyrazolo[1,5-a]pyrimidin-3(3,2)-pyridin-2(1,2)-pyrrolidincyclononan-8-one] | better thermodynamic stability | stable state; also recorded: good stability
 |  |  |  |  |  |  |  |  |  |  | C[C@H]1CNC(=O)Nc2cnn3ccc(nc23)N2C[C@@H](F)C[C@@H]2c2cc(F)cnc2O1 [crystalline form B, (2^2R,2^4S,5S)-2^4,3^5-difluoro-5-methyl-4-oxa-7,9-diaza-1(5,3)-pyrazolo[1,5-a]pyrimidin-3(3,2)-pyridin-2(1,2)-pyrrolidincyclononan-8-one] | can be transformed into the crystalline form A | 
